Source: PubChem BioAssay AID248 (DTP/NCI, 2004)
“And” between values parts separate entries of the source, which are not always exact repeats. Identical values can stand only once. Inconclusive results and toxic doses are left out. No stated cut-off is given here; in the data, active means T/C of 150% or more; inactive means T/C below 125%.

Test system: L1210 leukemia ip in BDF1 mice, survival T/C
Experiment: NCI In Vivo Anticancer Drug Screen. Data for tumor model L1210 Leukemia (intraperitoneal) in B6D2F1 (BDF1) mice
Conditions: endpoint: mean survival time, higher = longer survival
In short: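 Value reflects the ratio of survival in compound-treated mice to survival in vehicle-treated controls, with both groups carrying the same transplanted tumor.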

[1] = dose: 75.0 mg/kg/injection, schedule: Q01DX009 (ip), vehicle: Klucel (hydroxypropylcellulose) (HPC)
[2] = dose: 150.0 mg/kg/injection, schedule: Q01DX009 (ip), vehicle: Klucel (hydroxypropylcellulose) (HPC)
[3] = dose: 300.0 mg/kg/injection, schedule: Q01DX009 (ip), vehicle: Klucel (hydroxypropylcellulose) (HPC)
[4] = dose: 50.0 mg/kg/injection, schedule: Q01DX001 (ip), vehicle: saline
[5] = dose: 100.0 mg/kg/injection, schedule: Q01DX001 (ip), vehicle: saline
[6] = dose: 200.0 mg/kg/injection, schedule: Q01DX001 (ip), vehicle: saline
[7] = dose: 400.0 mg/kg/injection, schedule: Q01DX001 (ip), vehicle: saline
[8] = dose: 100.0 mg/kg/injection, schedule: Q04DX003 (ip), vehicle: Klucel (hydroxypropylcellulose) (HPC)
[9] = dose: 200.0 mg/kg/injection, schedule: Q04DX003 (ip), vehicle: Klucel (hydroxypropylcellulose) (HPC)
[10] = dose: 400.0 mg/kg/injection, schedule: Q04DX003 (ip), vehicle: Klucel (hydroxypropylcellulose) (HPC)
[11] = dose: 100.0 mg/kg/injection, schedule: Q04DX002 (ip), vehicle: saline with Tween-80
[12] = dose: 100.0 mg/kg/injection, schedule: Q04DX002 (ip), vehicle: Klucel (hydroxypropylcellulose) (HPC)
[13] = dose: 200.0 mg/kg/injection, schedule: Q04DX002 (ip), vehicle: Klucel (hydroxypropylcellulose) (HPC)
[14] = dose: 400.0 mg/kg/injection, schedule: Q04DX002 (ip), vehicle: Klucel (hydroxypropylcellulose) (HPC)
[15] = dose: 100.0 mg/kg/injection, schedule: Q01DX009 (ip), vehicle: saline with Tween-80
[16] = dose: 100.0 mg/kg/injection, schedule: Q04DX003 (ip), vehicle: saline with Tween-80
[17] = dose: 200.0 mg/kg/injection, schedule: Q01DX009 (ip), vehicle: saline with Tween-80
[18] = dose: 200.0 mg/kg/injection, schedule: Q04DX003 (ip), vehicle: saline with Tween-80
[19] = dose: 400.0 mg/kg/injection, schedule: Q04DX003 (ip), vehicle: saline with Tween-80
[20] = dose: 25.0 mg/kg/injection, schedule: Q01DX009 (ip), vehicle: saline with Tween-80
[21] = dose: 50.0 mg/kg/injection, schedule: Q01DX009 (ip), vehicle: saline with Tween-80

Measured: T/C

CC(=O)Nc1ccc(C(C)(C)C)cc1
inactive: dose: 100.0 mg/kg/injection, schedule: Q01DX001 (ip), vehicle: saline with Tween-80 95 % of control | dose: 200.0 mg/kg/injection, schedule: Q01DX001 (ip), vehicle: saline with Tween-80 95 % of control | dose: 400.0 mg/kg/injection, schedule: Q01DX001 (ip), vehicle: saline with Tween-80 95 % of control

CN(CCN(C)S(=O)(=O)c1ccccc1)S(=O)(=O)c1ccccc1
inactive: [1] 94 % of control | [2] 107 % of control | [3] 95 % of control

CCC1CC2c3cc(OC)c(OC)cc3CCN2CC1(O)c1ccccc1 (stereo unspecified)
inactive: dose: 25.0 mg/kg/injection, schedule: Q01DX001 (ip), vehicle: carboxymethylcellulose (CMC) 92 % of control | dose: 25.0 mg/kg/injection, schedule: Q04DX003 (ip), vehicle: carboxymethylcellulose (CMC) 97 % of control | dose: 50.0 mg/kg/injection, schedule: Q01DX001 (ip), vehicle: carboxymethylcellulose (CMC) 95 % of control | dose: 50.0 mg/kg/injection, schedule: Q04DX003 (ip), vehicle: carboxymethylcellulose (CMC) 97 % of control | dose: 100.0 mg/kg/injection, schedule: Q01DX001 (ip), vehicle: carboxymethylcellulose (CMC) 103 % of control and 109 % of control | dose: 100.0 mg/kg/injection, schedule: Q04DX003 (ip), vehicle: carboxymethylcellulose (CMC) 100 % of control

CC1CCOC1=O (stereo unspecified)
inactive: [4] 96 % of control | [5] 107 % of control | [6] 105 % of control | [7] 96 % of control

O=c1ccn(C2CCCO2)c(=O)[nH]1 (stereo unspecified)
inactive: [4] 105 % of control | [5] 109 % of control | [6] 100 % of control | [7] 103 % of control

NC(C(=O)O)c1ccco1 (stereo unspecified)
inactive: [8] 103 % of control | [9] 105 % of control | [10] 101 % of control

[N-]=[N+]=NC1=CC(=O)C(c2ccccc2)=CC1=O
inactive: [11] 102 % of control | dose: 200.0 mg/kg/injection, schedule: Q04DX002 (ip), vehicle: saline with Tween-80 97 % of control

O=C1c2cccc3cc([N+](=O)[O-])cc(c23)C(=O)N1CCc1ccccn1
inactive: [12] 94 % of control | [13] 102 % of control | [14] 108 % of control

CNC(=S)N(C)c1ccccc1
inactive: [12] 100 % of control | [13] 107 % of control | [14] 104 % of control

CCc1c(Nc2ccc(Cl)c(Cl)c2)nc(N)[nH]c1=O
inactive: dose: 100.0 mg/kg/injection, schedule: Q01DX Z (ip), vehicle: methylcellulose (MC) 99 % of control | dose: 200.0 mg/kg/injection, schedule: Q01DX Z (ip), vehicle: methylcellulose (MC) 100 % of control

O=Cc1ccc2cccnc2c1O
inactive: [4] 114 % of control | [5] 108 % of control | [6] 93 % of control

CCCCN=C(N)CCl
inactive: dose: 25.0 mg/kg/injection, schedule: Q04DX002 (ip), vehicle: saline 106 % of control | dose: 50.0 mg/kg/injection, schedule: Q04DX002 (ip), vehicle: saline 95 % of control | dose: 100.0 mg/kg/injection, schedule: Q04DX002 (ip), vehicle: saline 124 % of control

CCOC(=O)Cc1cc(=O)c2ccccc2[nH]1
inactive: dose: 100.0 mg/kg/injection, schedule: Q04DX003 (ip), vehicle: acetone 96 % of control | dose: 200.0 mg/kg/injection, schedule: Q04DX003 (ip), vehicle: acetone 97 % of control | dose: 400.0 mg/kg/injection, schedule: Q04DX003 (ip), vehicle: acetone 103 % of control

COP1(=O)C=C(C)CC1 (stereo unspecified)
inactive: [5] 95 % of control | [6] 95 % of control | [7] 95 % of control

c1ccc(Cc2[nH]nc(-c3ccccc3)c2N=Nc2ccccc2)cc1
inactive: dose: 100.0 mg/kg/injection, schedule: Q01DX001 (ip), vehicle: Klucel (hydroxypropylcellulose) (HPC) 94 % of control | [8] 103 % of control | dose: 200.0 mg/kg/injection, schedule: Q01DX001 (ip), vehicle: Klucel (hydroxypropylcellulose) (HPC) 94 % of control | [9] 103 % of control | dose: 400.0 mg/kg/injection, schedule: Q01DX001 (ip), vehicle: Klucel (hydroxypropylcellulose) (HPC) 91 % of control | [10] 100 % of control

Cc1c(C)c([N+](=O)[O-])c(I)c(C)c1[N+](=O)[O-]
inactive: [1] 98 % of control | dose: 75.0 mg/kg/injection, schedule: Q04DX003 (ip), vehicle: Klucel (hydroxypropylcellulose) (HPC) 102 % of control | [2] 98 % of control | dose: 150.0 mg/kg/injection, schedule: Q04DX003 (ip), vehicle: Klucel (hydroxypropylcellulose) (HPC) 102 % of control | [3] 97 % of control | dose: 300.0 mg/kg/injection, schedule: Q04DX003 (ip), vehicle: Klucel (hydroxypropylcellulose) (HPC) 98 % of control

O=C1C(=O)c2ccccc2-c2ccccc21
inactive: dose: 50.0 mg/kg/injection, schedule: Q04DX003 (ip), vehicle: Klucel (hydroxypropylcellulose) (HPC) 98 % of control | [8] 97 % of control | [9] 98 % of control

CCOC(=O)N1c2ccc(Cl)cc2C=CC1C#N (stereo unspecified)
inactive: dose: 100.0 mg/kg/injection, schedule: Q01DX009 (ip), vehicle: gum acacia 91 % of control | dose: 100.0 mg/kg/injection, schedule: Q04DX003 (ip), vehicle: gum acacia 103 % of control | dose: 200.0 mg/kg/injection, schedule: Q01DX009 (ip), vehicle: gum acacia 91 % of control | dose: 200.0 mg/kg/injection, schedule: Q04DX003 (ip), vehicle: gum acacia 97 % of control | dose: 400.0 mg/kg/injection, schedule: Q04DX003 (ip), vehicle: gum acacia 92 % of control

COc1cc(C(=O)N2CCOC23CCN(Cc2ccccc2)CC3)cc(OC)c1OC
inactive: [15] 95 % of control | [16] 102 % of control | [17] 90 % of control | [18] 100 % of control | [19] 100 % of control

CCCCCCCCCCCCCCCCCC(=O)NCC[N+](C)(C)C
inactive: dose: 5.0 mg/kg/injection, schedule: Q01DX001 (ip), vehicle: saline 98 % of control | dose: 10.0 mg/kg/injection, schedule: Q01DX001 (ip), vehicle: saline 96 % of control | dose: 20.0 mg/kg/injection, schedule: Q01DX001 (ip), vehicle: saline 98 % of control | dose: 40.0 mg/kg/injection, schedule: Q01DX001 (ip), vehicle: saline 93 % of control | dose: 80.0 mg/kg/injection, schedule: Q01DX001 (ip), vehicle: saline 102 % of control

O=C1CSc2ccccc2N1
inactive: dose: 12.5 mg/kg/injection, schedule: Q01DX009 (ip), vehicle: saline with Tween-80 94 % of control | [20] 100 % of control | [21] 102 % of control | dose: 50.0 mg/kg/injection, schedule: Q04DX003 (ip), vehicle: saline with Tween-80 103 % of control | [12] 97 % of control | [16] 103 % of control | [13] 95 % of control | [18] 92 % of control | [14] 110 % of control

COC(=O)c1ccccc1NCCCC(=O)O
inactive: [15] 97 % of control | [16] 103 % of control | [17] 97 % of control | [18] 97 % of control | dose: 400.0 mg/kg/injection, schedule: Q01DX009 (ip), vehicle: saline with Tween-80 102 % of control | [19] 98 % of control

CCCCCCCCCCCCCCC(F)C(=O)OCC1OC(CO)(OC2OC(CO)C(O)C(O)C2O)C(O)C1O (stereo unspecified)
inactive: [20] 98 % of control | [21] 100 % of control | [16] 107 % of control

CCCCSP(=O)(SCCCC)N1CCCCC1
inactive: dose: 25.0 mg/kg/injection, schedule: Q04DX002 (ip), vehicle: saline with Tween-80 108 % of control | dose: 50.0 mg/kg/injection, schedule: Q04DX002 (ip), vehicle: saline with Tween-80 89 % of control | [11] 101 % of control
